This is an account of results in patent publication US5780245A, “Polypeptides having a serotonin receptor activity, nucleic acids coding for these polypeptides and uses” (priority 1992, dated 1998).

The target in assay [1] is 5-HT2 (Homo sapiens, UniProt P28223). Kind of assay: binding to 5-HT2 (Table 1 comparison).
The target of assay [2] is T1, truncated (T) 5HT2C receptor (Mus musculus, UniProt Q02152, S167T).
T1 sequence (Q02152 with tags, fused parts or gaps S167T): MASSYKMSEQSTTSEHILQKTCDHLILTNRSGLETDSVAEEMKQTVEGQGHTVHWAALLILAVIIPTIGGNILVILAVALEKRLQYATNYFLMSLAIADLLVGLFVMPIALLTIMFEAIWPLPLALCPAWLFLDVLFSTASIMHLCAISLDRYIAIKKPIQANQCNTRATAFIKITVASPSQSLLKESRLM
Kind of assay: biochemical. Format: binding.

For assay [3], the target named is T2, 5-HT1C (Homo sapiens, UniProt P28335).
T2 sequence (P28335 33-458): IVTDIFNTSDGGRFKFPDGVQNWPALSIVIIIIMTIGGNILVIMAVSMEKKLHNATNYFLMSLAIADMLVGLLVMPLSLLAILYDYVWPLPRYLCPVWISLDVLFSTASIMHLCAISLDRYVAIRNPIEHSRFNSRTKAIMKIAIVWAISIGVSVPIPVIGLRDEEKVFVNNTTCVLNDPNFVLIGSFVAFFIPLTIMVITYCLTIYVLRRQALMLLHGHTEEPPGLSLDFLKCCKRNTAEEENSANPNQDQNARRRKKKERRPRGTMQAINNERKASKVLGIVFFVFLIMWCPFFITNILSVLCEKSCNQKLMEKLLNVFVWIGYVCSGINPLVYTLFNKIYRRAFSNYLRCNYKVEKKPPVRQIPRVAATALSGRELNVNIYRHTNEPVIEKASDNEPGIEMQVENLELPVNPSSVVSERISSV
Kind of assay: biochemical. In kind it is binding.

Assay [4] addresses whole (N) 5HT2C receptor (Mus musculus, UniProt Q02152). Kind of assay: biochemical. In kind it is binding. Conditions: for competition / order of efficacy of displacement: displacement of [^125 I]DOI.
The subject of assay [5] is membranes of the control cells (transfected with plasmid pSG5). Kind of assay: [^125 I]DOI binding to membranes of control cells (transfected with plasmid pSG5). The method, then:
(§1) The [^125 I]DOI (dimethoxyphenyl isopropylamine) was first used alone, in order to detect the expression of the gene encoding the receptors of the invention in the membranes of the recombinant cells. For this purpose, 100 μl of membrane suspension ([…]) of proteins) were incubated for 30 minutes at 30° C. in the presence of the radioactive ligand (50 μl) and 50 μl of 50 mM Tris-HCl buffer (pH 7.4), 150 mM NaCl, 10 mm MgCl2, final volume: 200 μl. The reaction is then stopped by addition of an isoosmotic ice-cold solution, then by filtration on Whatman GF/B filters, followed by 4 rinses in 5 ml of the above ice-cold buffer. The filters are then dried and the radioactivity is measured by counting (γ counter). Non-specific binding, determined in the presence of 10 μM of cold DOI, represented about 30% of the total binding.
These cells therefore indeed express a functional serotonin receptor.

For assay [6], the target named is T3, 5HT2C receptor (Mus musculus, UniProt Q02152).
T3 construct: expressed in transfected cells; host or cells: Cos-7
Kind of assay: saturation binding of [^125 I]DOI to membranes of Cos-7 cells expressing the 5HT2C receptor. On the procedure:
FIG. 1 Scatchard curve of the results of experiments for the binding, at saturation, of [^125 I]DOI to the membranes of Cos-7 cells expressing the 5HT2C receptor.
The cDNA fragment isolated in Example 1 was inserted into an eukaryotic expression vector, which was used to transfect Cos-7 cells. The membranes of the transfected cells obtained were then prepared and tested for their capacity to bind certain labelled serotoninergic ligands.
The cDNA encoding the 5HT2C receptor was isolated in the form of a 1372 pb XbaI-EcoRI fragment and then inserted at the corresponding sites of the vector p513. The vector p513 is derived from the vector pSG5 [Green et al., Nucl. Acids Res. 16 (1988) 369] by addition of a multiple cloning site. The recombinant vector thus obtained, designated p513NP75, was then used (10 μg per 10 cm dish) to transfect the Cos-7 cells in the presence of calcium phosphate.
48 Hours after transfection, the recombinant cells are harvested and the membranes are prepared according to the technique described by Amlaiky and Caron [J. Biol. Chem. 260 (1985) 1983].
Saturation binding and competition experiments were then carried out on these membranes in the presence of [^125 I]DOI (2200 Ci/mmol; New England Nuclear) and various test compounds.
as §1

Assay [7] relates to coronary arteries. Conditions: human coronary atherosclerosis; Golino et al.; cited from earlier work.
Assay [8] deals with translation of the intracellular signal. Kind of assay: translation of the intracellular signal by the truncated receptor. Format: cell-based, mouse. Particulars: truncated protein. From the text:
The physiological role of this form of the receptor remains unknown, but it seems likely that it serves to protect certain sensitive targets, such as the vascular endothelium, from harmful stimulations by locally "diluting" the effect of the ligand, in this case serotonin.

Where [9] appears, read: [^125 I]DOI displacement, COS membranes, truncated receptor, at least three experiments in triplicate, read-out: pKD, binding to the COS T (converted).
[10] abbreviates: [^125 I]DOI displacement, Cos-7 membranes, whole receptor, at least three experiments in triplicate, read-out: pKD, binding to the COS N cells (converted).
Where [11] appears, read: Table 1 comparison column, source of values not stated.

Like-named read-outs stand apart in the source and are kept apart here.

Chain of whole (N) 5HT2C receptor (Q02152 whole entry S167T/A227V/S449C): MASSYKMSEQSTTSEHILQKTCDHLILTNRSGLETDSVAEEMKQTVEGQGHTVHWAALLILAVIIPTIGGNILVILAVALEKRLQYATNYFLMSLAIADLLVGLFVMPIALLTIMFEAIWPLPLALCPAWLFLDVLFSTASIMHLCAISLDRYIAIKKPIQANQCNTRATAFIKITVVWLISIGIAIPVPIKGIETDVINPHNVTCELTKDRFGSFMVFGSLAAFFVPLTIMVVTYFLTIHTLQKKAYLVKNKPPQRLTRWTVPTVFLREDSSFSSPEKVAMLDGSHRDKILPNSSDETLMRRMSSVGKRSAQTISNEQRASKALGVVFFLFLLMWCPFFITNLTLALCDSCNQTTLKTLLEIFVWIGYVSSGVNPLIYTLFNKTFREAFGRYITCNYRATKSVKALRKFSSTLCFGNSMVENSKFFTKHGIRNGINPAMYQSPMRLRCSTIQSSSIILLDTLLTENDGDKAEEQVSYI
T3 sequence (Q02152 whole entry S167T/A227V/S449C): as above
Chain of 5-HT2 (P28223 whole entry, species assumed, the tested form may be a part): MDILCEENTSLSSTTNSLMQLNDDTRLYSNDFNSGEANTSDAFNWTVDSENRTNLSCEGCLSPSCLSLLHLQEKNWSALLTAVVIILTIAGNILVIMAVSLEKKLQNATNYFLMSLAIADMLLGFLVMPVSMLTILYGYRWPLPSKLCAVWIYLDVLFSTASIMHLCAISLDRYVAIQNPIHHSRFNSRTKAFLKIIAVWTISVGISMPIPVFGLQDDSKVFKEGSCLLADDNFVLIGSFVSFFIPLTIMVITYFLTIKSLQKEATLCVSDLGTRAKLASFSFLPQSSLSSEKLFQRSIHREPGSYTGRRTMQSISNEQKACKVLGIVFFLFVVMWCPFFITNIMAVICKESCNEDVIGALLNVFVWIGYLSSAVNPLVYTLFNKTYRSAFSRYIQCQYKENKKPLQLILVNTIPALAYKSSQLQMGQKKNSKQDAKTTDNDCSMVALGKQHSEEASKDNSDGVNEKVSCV

Consider `c1ccc2nc(N3CCNCC3)ccc2c1` [Quipazine], for which the Kd is 631 nM in assay [1], 14100 nM in assay [2] (setting [9]), 200 nM in assay [3] and 6610 nM in assay [4] (setting [10]). In assay [4] (whole receptor), the “competition” value was “absence of competition”.

On to `COc1cc(CC(C)N)c(OC)cc1I` (stereo not shown) [DOI, dimethoxyphenyl isopropylamine], for which, in assay [5], the “binding to membranes of the control cells” value is given as “not to the membranes of the control cells”. Further, in assay [6] ([^125 I]DOI), the “specific binding to the membranes of the transfected cells” value was “binds specifically to the membranes of the transfected cells”. Besides, the Kd in assay [6] ([^125 I]DOI saturation binding, 30 minutes at 30° C., pH 7.4, read-out: apparent KD) worked out at 25.8 ± 0.54 nM. In addition, in assay [6] ([^125 I]DOI saturation binding, FIG. 1), the “affinity for the transfected cells” value was “high and the binding is saturable”. For the same molecule, in assay [6] (in the presence of 10 μM of cold DOI), the “non-specific binding (of the total binding)” value is given as “about 30%”.

For the molecule `CN(C)CCCN1c2ccccc2Sc2ccc(Cl)cc21` [Chlorpromazine], the Kd in assay [2] (setting [9]) and in assay [4] (setting [10]) was greater than 100000 nM each time.

For the molecule `Cc1nc2sccn2c(=O)c1CCN1CCC(=C(c2ccc(F)cc2)c2ccc(F)cc2)CC1` [Ritanserin], the Kd in assay [3] was 2.51 nM. The “order of efficacy of displacement” value in assay [4] (whole receptor) is given as “ritanserin>N-acetyl 5-HT>methysergide>setoperone=cyproheptadine>spiperone>ketanserin>tryptamine>5-HT >8-OH-DPAT”.

For the molecule `CN1[C@@H]2CC[C@H]1C[C@@H](OC(=O)c1cc(Cl)cc(Cl)c1)C2` [MDL 72222], the Kd in assay [1] was 200 nM; in assay [2] (setting [9]) it was greater than 100000 nM; in assay [3] (setting [11]) it was greater than 10000 nM; in assay [4] (setting [10]), 24000 nM. Moreover, the “competition” value in assay [4] (whole receptor) was “absence of competition”.

On to `CC(=O)NCCc1c[nH]c2ccc(O)cc12` [N-Acetyl-5-HT], for which the Kd in assay [1] is 3160 nM; in assay [2] (setting [9]), 200 nM; in assay [3], 794 nM; in assay [4] it was 7.08 nM. Besides, the “order of efficacy of displacement” value in assay [4] (whole receptor) was “ritanserin>N-acetyl 5-HT>methysergide>setoperone=cyproheptadine>spiperone>ketanserin>tryptamine>5-HT >8-OH-DPAT”.

Turning to `NCCc1c[nH]cn1` [Histamine], the Kd in assay [1], in assay [2] (setting [9]), in assay [3] (setting [11]) and in assay [4] (setting [10]) was greater than 100000 nM in each case.

For `Cc1nc2n(c(=O)c1CCN1CCC(C(=O)c3ccc(F)cc3)CC1)CCS2` [Setoperone], the Kd is 2.51 nM in assay [1], greater than 100000 nM in assay [2] (setting [9]), 50.1 nM in assay [3] (setting [11]) and 24.5 nM in assay [4] (setting [10]). In assay [4] (whole receptor), the “order of efficacy of displacement” value was “ritanserin>N-acetyl 5-HT>methysergide>setoperone=cyproheptadine>spiperone>ketanserin>tryptamine>5-HT >8-OH-DPAT”.

As for `CN1C2CCC1CC(OC(=O)c1c[nH]c3ccccc13)C2` (stereo not shown) [ICS 205-930], the Kd was greater than 100000 nM in assay [2] (setting [9]) and 25100 nM in assay [3]. In addition, the “competition” value in assay [4] (whole receptor) is on record as “absence of competition”.

`CN1CCC(=C2c3ccccc3C=Cc3ccccc32)CC1` [Cyproheptadine] showed a Kd in assay [3] (setting [11]) of 12.6 nM.

Take `O=C(CCCN1CCC2(CC1)C(=O)NCN2c1ccccc1)c1ccc(F)cc1` [Spiperone]: the Kd is greater than 100000 nM in assay [2] (setting [9]), 1260 nM in assay [3] (setting [11]) and 50.1 nM in assay [4] (setting [10]). For the same molecule, in assay [4] (whole receptor), the “order of efficacy of displacement” value was “ritanserin>N-acetyl 5-HT>methysergide>setoperone=cyproheptadine>spiperone>ketanserin>tryptamine>5-HT >8-OH-DPAT”.

On to `Cc1[nH]c2ccc(O)cc2c1CCN` [2-Me-5-HT], for which the Kd was 6310 nM in assay [1] (setting [11]), greater than 100000 nM in assay [2] (setting [9]), 1580 nM in assay [3] and 6610 nM in assay [4].

For `CC[C@@H](CO)NC(=O)[C@@H]1C=C2c3cccc4c3c(cn4C)C[C@H]2N(C)C1` [Methysergide], the Kd in assay [3] is 2.51 nM; in assay [4], 12.6 nM. Moreover, the “order of efficacy of displacement” value in assay [4] (whole receptor) is given as “ritanserin>N-acetyl 5-HT>methysergide>setoperone=cyproheptadine>spiperone>ketanserin>tryptamine>5-HT >8-OH-DPAT”.

As to `O=C(c1ccc(F)cc1)C1CCN(CCn2c(=O)[nH]c3ccccc3c2=O)CC1` [Ketanserin], the “increased sensitivity to serotonin of the contraction of the coronary arteries” value in assay [7] is on record as “can be reduced by ketanserin”. Moreover, the values for the Kd in assay [2] and in assay [4] (setting [10]) were greater than 100000 nM and 204 nM, respectively. In assay [4] (whole receptor), the “order of efficacy of displacement” value is “ritanserin>N-acetyl 5-HT>methysergide>setoperone=cyproheptadine>spiperone>ketanserin>tryptamine>5-HT >8-OH-DPAT”.

As to `Cn1cc(CCN)c2cc(O)ccc21` [1-ME-5-HT], the Kd in assay [1] (setting [11]) is 501 nM; in assay [2] (setting [9]), 60300 nM; in assay [3] it was 3.98 nM; in assay [4], 2510 nM.

Turning to `COc1ccc2[nH]cc(CCN(C)C)c2c1` [NNdiMe-5-MeOT], the Kd in assay [2] (setting [9]) is 45700 nM; in assay [4], 7410 nM.

Take `CCCN(CCC)C1CCc2cccc(O)c2C1` (stereo not shown) [8-OH-DPAT]: the Kd in assay [1] was 10000 nM; in assay [2] (setting [9]), greater than 100000 nM; in assay [4], 6460 nM. The “order of efficacy of displacement” value in assay [4] (whole receptor) is “ritanserin>N-acetyl 5-HT>methysergide>setoperone=cyproheptadine>spiperone>ketanserin>tryptamine>5-HT >8-OH-DPAT”.

Turning to `NCCc1c[nH]c2ccccc12` [Tryptamine], the figures for the Kd in assay [2] (setting [9]), in assay [3] and in assay [4] were 14500 nM, 63.1 nM and 200 nM, respectively. Besides, in assay [4] (whole receptor), the “order of efficacy of displacement” value is “ritanserin>N-acetyl 5-HT>methysergide>setoperone=cyproheptadine>spiperone>ketanserin>tryptamine>5-HT >8-OH-DPAT”.

B1: truncated protein: receptor having only the first three transmembrane domains, residues 1 to 177 SEQ ID No. 2 plus 14 C-terminal amino acids (protein)
chain: MASSYKMSEQSTTSEHILQKTCDHLILTNRSGLETDSVAEEMKQTVEGQGHTVHWAALLILAVIIPTIGGNILVILAVALEKRLQYATNYFLMSLAIADLLVGLFVMPIALLTIMFEAIWPLPLALCPAWLFLDVLFSTASIMHLCAISLDRYIAIKKPIQANQCNTRATAFIKITV
modifications: plus 14 C-terminal amino acids
Consider B1, for which the “translation of the intracellular signal” value in assay [8] is “completely abolished”.
